According to US12595253B2, “Benzamides of pyrazolylamino-pyrimidinyl derivatives, and compositions and methods thereof” (LYNK PHARMACEUTICALS CO. LTD., priority 2019, dated 2026):

What was measured:
Format in all cases: biochemical
JAK1 = target: T1, JAK1 (Homo sapiens, UniProt P23458); experiment: JAK1 microfluidic kinase assay (Caliper EZ Reader II, FAM labeled peptide substrate); conditions: IC50 JAK1 (5 nM) (1 m MATP), JAK1 5 nM, 1 mM ATP
T1 construct: purchased Carna Biosciences
Summary of the method: (§1)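 Compounds, serially diluted 3-fold from 5 μM, were preincubated 10 min with enzyme at ambient temperature before reaction in HEPES/Brij35/MgCl2/DTT buffer (1% DMSO final), tuned to 10% peptide conversion. After EDTA stop, FAM-peptide phosphorylation was measured by Caliper EZ Reader II; IC50 fitted from percent-inhibition curves.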

JAK2 = target: T2, JAK2 (Homo sapiens, UniProt O60674); experiment: JAK2 microfluidic kinase assay (Caliper EZ Reader II, FAM labeled peptide substrate); conditions: IC50 JAK2 ([…]) (1 mM ATP), 1 mM ATP
T2 construct: purchased Carna Biosciences
Summary of the method: as §1

TYK2 = target: T3, TYK2 (Homo sapiens, UniProt P29597); experiment: TYK2 microfluidic kinase assay (Caliper EZ Reader II, FAM labeled peptide substrate); conditions: IC50 TYK2 ([…]) (1 mM ATP), TYK2 […], 1 mM ATP
T3 construct: purchased Carna Biosciences
Description: Compounds were tested against JAK1, JAK2, JAK2V617F and TYK2. Assay Formats: JAK activity was determined in the reaction buffer 50 mM HEPES, 0.01% Brij35, 10 mM MgCl2, 2 mM DTT by a microfluidic assay. The phosphorylation of a FAM labeled peptide substrate was monitored in the Caliper EZ Reader II (Perkin Elmer). The assay condition for each batch of enzyme (Carna Biosciences) was optimized to obtain 10% conversion rate of peptide substrate. The test compounds were dissolved in DMSO to a stock concentration of 10 mM. 3-fold serially diluted compounds with top concentration of 5 μM were pre-incubated with JAK1, JAK2, JAK2V617F or TYK2 at indicated concentrations for 10 min at ambient temperature. The final DMSO concentration of assay mixture was 1%. […] The reaction was stopped by adding 50 mM EDTA. The reaction time for JAK1, JAK2, JAK2V617F and TYK2 was 120 min, 20 min, 30 min and 10 min, respectively. […] And the well without compound but with equivalent DMSO was defined as no inhibition. The percent inhibition was calculated by the following formula. % Inhibition=(Conversionmax−Conversionsample)/(Conversionmax−Conversionmin)*100 • Conversionmax means the conversion rate in the positive well without addition of compound • Conversionmin means the conversion rate in the well without addition of enzyme • Conversionsample means the conversion rate of test compounds The dose-response (percent inhibition) curve was plotted and IC50 values were determined by GraphPad software.

T2 sequence (O60674 whole entry): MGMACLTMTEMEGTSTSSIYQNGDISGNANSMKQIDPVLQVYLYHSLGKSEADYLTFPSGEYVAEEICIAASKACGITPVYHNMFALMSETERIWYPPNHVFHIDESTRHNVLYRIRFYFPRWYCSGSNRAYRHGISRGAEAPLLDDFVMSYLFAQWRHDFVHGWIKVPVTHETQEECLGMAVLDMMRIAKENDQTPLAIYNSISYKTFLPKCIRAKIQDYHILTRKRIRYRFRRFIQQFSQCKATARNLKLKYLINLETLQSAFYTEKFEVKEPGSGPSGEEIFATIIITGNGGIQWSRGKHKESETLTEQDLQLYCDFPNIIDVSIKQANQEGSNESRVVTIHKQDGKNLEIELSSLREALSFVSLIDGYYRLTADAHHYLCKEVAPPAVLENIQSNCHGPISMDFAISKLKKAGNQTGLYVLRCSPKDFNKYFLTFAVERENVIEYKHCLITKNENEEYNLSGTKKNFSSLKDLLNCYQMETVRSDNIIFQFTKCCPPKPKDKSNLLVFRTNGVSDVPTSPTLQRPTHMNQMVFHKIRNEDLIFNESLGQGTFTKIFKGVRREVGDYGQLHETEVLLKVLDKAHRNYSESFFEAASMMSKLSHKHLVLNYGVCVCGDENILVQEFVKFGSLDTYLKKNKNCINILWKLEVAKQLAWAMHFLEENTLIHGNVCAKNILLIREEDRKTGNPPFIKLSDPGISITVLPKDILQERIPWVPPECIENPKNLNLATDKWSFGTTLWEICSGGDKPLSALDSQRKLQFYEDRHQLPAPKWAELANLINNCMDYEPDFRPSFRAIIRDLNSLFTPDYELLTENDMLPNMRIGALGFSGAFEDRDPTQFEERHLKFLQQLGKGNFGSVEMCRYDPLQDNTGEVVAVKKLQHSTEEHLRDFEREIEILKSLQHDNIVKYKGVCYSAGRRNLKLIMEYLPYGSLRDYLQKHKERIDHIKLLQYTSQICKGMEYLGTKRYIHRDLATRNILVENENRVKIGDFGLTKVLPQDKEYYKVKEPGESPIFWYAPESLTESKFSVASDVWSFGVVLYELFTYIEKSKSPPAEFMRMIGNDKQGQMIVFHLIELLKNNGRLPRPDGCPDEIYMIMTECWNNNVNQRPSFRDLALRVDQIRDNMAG
T1 sequence (P23458 whole entry): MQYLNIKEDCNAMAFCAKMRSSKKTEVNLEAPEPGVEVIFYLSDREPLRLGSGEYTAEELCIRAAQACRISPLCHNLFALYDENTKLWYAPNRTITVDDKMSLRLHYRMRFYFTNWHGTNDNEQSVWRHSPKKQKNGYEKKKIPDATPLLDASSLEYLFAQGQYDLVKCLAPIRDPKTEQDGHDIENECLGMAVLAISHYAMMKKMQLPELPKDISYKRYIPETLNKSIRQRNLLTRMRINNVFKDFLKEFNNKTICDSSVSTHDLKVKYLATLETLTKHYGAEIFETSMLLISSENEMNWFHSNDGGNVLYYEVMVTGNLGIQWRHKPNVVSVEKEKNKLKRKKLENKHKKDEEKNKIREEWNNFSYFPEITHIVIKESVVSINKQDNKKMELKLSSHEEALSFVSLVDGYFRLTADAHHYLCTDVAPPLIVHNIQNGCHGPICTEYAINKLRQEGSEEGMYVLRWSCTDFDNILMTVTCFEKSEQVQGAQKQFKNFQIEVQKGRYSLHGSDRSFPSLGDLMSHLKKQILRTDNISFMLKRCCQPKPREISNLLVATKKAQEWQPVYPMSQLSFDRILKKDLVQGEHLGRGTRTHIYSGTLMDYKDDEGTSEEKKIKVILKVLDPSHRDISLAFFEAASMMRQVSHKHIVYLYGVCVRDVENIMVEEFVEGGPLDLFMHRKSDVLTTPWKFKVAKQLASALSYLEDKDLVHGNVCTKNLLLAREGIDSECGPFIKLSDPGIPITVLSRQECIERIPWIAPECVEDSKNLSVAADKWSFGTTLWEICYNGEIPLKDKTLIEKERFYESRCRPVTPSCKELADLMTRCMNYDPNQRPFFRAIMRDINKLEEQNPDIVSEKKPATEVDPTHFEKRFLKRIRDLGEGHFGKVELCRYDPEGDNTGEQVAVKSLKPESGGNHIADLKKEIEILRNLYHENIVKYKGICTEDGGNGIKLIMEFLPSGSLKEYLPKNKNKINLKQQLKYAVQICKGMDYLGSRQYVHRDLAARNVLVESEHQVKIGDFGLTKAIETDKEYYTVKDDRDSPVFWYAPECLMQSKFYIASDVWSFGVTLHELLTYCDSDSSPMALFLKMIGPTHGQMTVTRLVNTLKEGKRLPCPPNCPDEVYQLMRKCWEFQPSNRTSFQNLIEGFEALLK
T3 sequence (P29597 whole entry): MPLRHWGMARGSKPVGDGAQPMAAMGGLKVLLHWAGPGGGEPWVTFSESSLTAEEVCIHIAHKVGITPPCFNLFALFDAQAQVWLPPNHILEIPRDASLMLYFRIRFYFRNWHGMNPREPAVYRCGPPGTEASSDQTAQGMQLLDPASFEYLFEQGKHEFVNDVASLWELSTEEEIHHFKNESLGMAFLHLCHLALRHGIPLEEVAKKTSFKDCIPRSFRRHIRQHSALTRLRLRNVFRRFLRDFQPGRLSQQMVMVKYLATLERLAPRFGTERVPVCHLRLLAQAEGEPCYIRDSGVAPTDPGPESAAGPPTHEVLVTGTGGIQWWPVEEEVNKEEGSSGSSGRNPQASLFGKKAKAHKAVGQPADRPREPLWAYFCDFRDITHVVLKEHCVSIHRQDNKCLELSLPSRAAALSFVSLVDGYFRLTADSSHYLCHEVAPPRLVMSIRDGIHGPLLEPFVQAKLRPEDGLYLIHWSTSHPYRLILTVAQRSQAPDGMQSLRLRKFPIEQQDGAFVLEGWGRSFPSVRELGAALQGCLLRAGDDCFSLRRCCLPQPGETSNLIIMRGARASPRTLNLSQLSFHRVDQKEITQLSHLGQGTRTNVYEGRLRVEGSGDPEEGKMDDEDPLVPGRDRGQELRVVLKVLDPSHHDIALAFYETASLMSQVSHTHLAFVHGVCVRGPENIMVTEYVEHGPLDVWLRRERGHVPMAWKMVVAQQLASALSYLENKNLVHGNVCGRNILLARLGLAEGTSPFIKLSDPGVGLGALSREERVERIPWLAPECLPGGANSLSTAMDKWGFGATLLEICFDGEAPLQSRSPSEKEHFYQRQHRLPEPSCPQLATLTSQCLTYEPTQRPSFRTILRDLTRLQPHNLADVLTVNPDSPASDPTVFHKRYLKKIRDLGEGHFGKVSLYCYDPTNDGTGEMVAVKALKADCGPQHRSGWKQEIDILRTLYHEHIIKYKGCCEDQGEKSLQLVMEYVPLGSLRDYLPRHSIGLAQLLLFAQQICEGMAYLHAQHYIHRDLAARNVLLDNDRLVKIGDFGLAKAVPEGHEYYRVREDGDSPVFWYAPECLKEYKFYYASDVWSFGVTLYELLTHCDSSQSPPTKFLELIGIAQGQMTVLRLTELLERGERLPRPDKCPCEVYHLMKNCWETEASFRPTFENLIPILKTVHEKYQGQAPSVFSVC

Structure (SMILES)	IC50 (JAK1) [nM]	IC50 (JAK2) [nM]	IC50 (TYK2) [nM]
Cc1cnc(Nc2cnn([C@H]3C[C@@H](C)N[C@@H](C)C3)c2)nc1-c1ccc(C(=O)N[C@@H](C)C#N)cc1 [Example 232, N—((S)-1-cyanoethyl)-4-(2-((1-((2S,4r,6R)-2,6-dimethylpiperidin-4-yl)-1H-pyrazol-4-yl)amino)-5-methylpyrimidin-4-yl)benzamide]	9.9	0.43	2.97
Cc1cnc(Nc2cnn(C3CCNCC3)c2)nc1-c1ccc(C(=O)N[C@H](C#N)C2CC2)cc1 [Example 156, (S)—N-(cyano(cyclopropyl)methyl)-4-(5-methyl-2-((1-(piperidin-4-yl)-1H-pyrazol-4-yl)amino)pyrimidin-4-yl)benzamide]	2.93	0.79	3.15
COC[C@@H](C#N)NC(=O)c1ccc(-c2nc(Nc3cnn(CCO)c3)ncc2C)cc1 [Example 221, (R)—N-(1-cyano-2-methoxyethyl)-4-(2-((1-(2-hydroxyethyl)-1H-pyrazol-4-yl)amino)-5-methylpyrimidin-4-yl)benzamide]	10.4	54.8	62.3
CC[C@@H](C#N)NC(=O)c1ccc(-c2nc(Nc3cnn(C4CCCN(C)C4)c3)ncc2C)cc1 (stereo partly drawn) [Example 211, N—((S)-1-cyanopropyl)-4-(5-methyl-2-((1-(1-methylpiperidin-3-yl)-1H-pyrazol-4-yl)amino)pyrimidin-4-yl)benzamide]	20.5	0.66	58.1
Cc1cnc(Nc2cnn(C3CCNCC3)c2)nc1-c1ccc(C(=O)NCC#N)cc1 [Example 212, N-(cyanomethyl)-4-(5-methyl-2-((1-(piperidin-4-yl)-1H-pyrazol-4-yl)amino)pyrimidin-4-yl)benzamide]	7.81	0.47	76.4
C[C@@H](C#N)NC(=O)c1ccc(-c2nc(Nc3cnn(CC(N)=O)c3)ncc2Cl)cc1 [Example 47, (S)-4-(2-((1-(2-amino-2-oxoethyl)-1H-pyrazol-4-yl)amino)-5-chloropyrimidin-4-yl)-N-(1-cyanoethyl)benzamide]	5.67	36.6	50.6
Cc1cnc(Nc2cnn([C@@H]3C[C@@H](C)N[C@@H](C)C3)c2)nc1-c1ccc(C(=O)N[C@@H](C)C#N)cc1 [Example 231, N—((S)-1-cyanoethyl)-4-(2-((1-((2S,4s,6R)-2,6-dimethylpiperidin-4-yl)-1H-pyrazol-4-yl)amino)-5-methylpyrimidin-4-yl)benzamide]	80.6	1.63	245
Cc1cnc(Nc2cnn(C3CC3)c2)nc1-c1ccc(C(=O)N(C)CC#N)cc1 [Example 108, N-(cyanomethyl)-4-(2-((1-cyclopropyl-1H-pyrazol-4-yl)amino)-5-methylpyrimidin-4-yl)-N-methylbenzamide]	628	461	1150
N#CCNC(=O)c1ccc(-c2nc(Nc3cnn(C4CCN(C(=O)CO)CC4)c3)ncc2Cl)cc1 [Example 218, 4-(5-Chloro-2-((1-(1-(2-hydroxyacetyl)piperidin-4-yl)-1H-pyrazol-4-yl)amino)pyrimidin-4-yl)-N-(cyanomethyl)benzamide]	13	< 0.25	58
CC[C@@H](C#N)NC(=O)c1ccc(-c2nc(Nc3cnn(C(C)C(F)(F)F)c3)ncc2C)cc1 (single isomer, unassigned) [Example 226, N—((S)-1-Cyanopropyl)-4-(5-methyl-2-((1-((S*)-1,1,1-trifluoropropan-2-yl)-1H-pyrazol-4-yl)amino)pyrimidin-4-yl)benzamide]	4.24	32.2	57.3
C[C@H](C#N)NC(=O)c1ccc(-c2nc(Nc3cnn(C4CCN(C)CC4)c3)ncc2Cl)cc1 [Example 58, (R)-4-(5-Chloro-2-((1-(1-methylpiperidin-4-yl)-1H-pyrazol-4-yl)amino)pyrimidin-4-yl)-N-(1-cyanoethyl)benzamide]	34.8	42.2	272
C[C@@H](C#N)NC(=O)c1ccc(-c2nc(Nc3cnn(CCO)c3)ncc2Cl)cc1 [Example 186, (S)-4-(5-chloro-2-((1-(2-hydroxyethyl)-1H-pyrazol-4-yl)amino)pyrimidin-4-yl)-N-(1-cyanoethyl)benzamide]	2.47	25.2	39.7
CCC[C@@H](C#N)NC(=O)c1ccc(-c2nc(Nc3cnn(CCO)c3)ncc2C)cc1 [Example 192, (S)—N-(1-cyanobutyl)-4-(2-((1-(2-hydroxyethyl)-1H-pyrazol-4-yl)amino)-5-methylpyrimidin-4-yl)benzamide]	2.45	22.5	14.7
C[C@@H](C#N)NC(=O)c1ccc(-c2nc(Nc3cnn(C4CC(C)(C)OC(C)(C)C4)c3)ncc2Cl)cc1 [Example 206, (S)-4-(5-Chloro-2-((1-(2,2,6,6-tetramethyltetrahydro-2H-pyran-4-yl)-1H-pyrazol-4-yl)amino)pyrimidin-4-yl)-N-(1-cyanoethyl)benzamide]	16.7	< 0.25	0.55
C[C@@H](C#N)NC(=O)c1ccc(-c2nc(Nc3cnn(CCC#N)c3)ncc2Cl)cc1 [Example 189, (S)-4-(5-Chloro-2-((1-(2-cyanoethyl)-1H-pyrazol-4-yl)amino)pyrimidin-4-yl)-N-(1-cyanoethyl)benzamide]	4.02	44	85
CC[C@@H](C#N)NC(=O)c1ccc(-c2nc(Nc3cnn(C4CC(C)(C)OC(C)(C)C4)c3)ncc2C)cc1 [Example 179, (S)—N-(1-cyanopropyl)-4-(5-methyl-2-((1-(2,2,6,6-tetramethyltetrahydro-2H-pyran-4-yl)-1H-pyrazol-4-yl)amino)pyrimidin-4-yl)benzamide]	6.03	0.43	< 0.25
Cc1cnc(Nc2cnn(C3CCN(C(=O)CO)CC3)c2)nc1-c1ccc(C(=O)NCC#N)cc1 [Example 207, N-(cyanomethyl)-4-(2-((1-(1-(2-hydroxyacetyl)piperidin-4-yl)-1H-pyrazol-4-yl)amino)-5-methylpyrimidin-4-yl)benzamide]	15.2	< 0.25	50.6
Cc1cnc(Nc2cnn(CCC#N)c2)nc1-c1ccc(C(=O)N[C@@H](C)C#N)cc1 [Example 216, (S)—N-(1-cyanoethyl)-4-(2-((1-(2-cyanoethyl)-1H-pyrazol-4-yl)amino)-5-methylpyrimidin-4-yl)benzamide]	4.88	40.9	74
Cc1cnc(Nc2cnn(C3CCN(CCO)CC3)c2)nc1-c1ccc(C(=O)N[C@@H](C)C#N)cc1 [Example 204, (S)—N-(1-cyanoethyl)-4-(2-((1-(1-(2-hydroxyethyl)piperidin-4-yl)-1H-pyrazol-4-yl)amino)-5-methylpyrimidin-4-yl)benzamide]	1.88	0.91	33.3
CC[C@@H](C#N)NC(=O)c1ccc(-c2nc(Nc3cnn(CCC#N)c3)ncc2C)cc1 [Example 217, (S)-4-(2-((1-(2-cyanoethyl)-1H-pyrazol-4-yl)amino)-5-methylpyrimidin-4-yl)-N-(1-cyanopropyl)benzamide]	2.71	39.8	40.9
